Reference: patent publication US8471005B2 (Cephalon, Inc., priority 2008, dated 2013)
Like-named read-outs stand apart in the source and are kept apart here.

How the values were obtained:
JAK2 = molecular target: T1, JAK2 (Homo sapiens, UniProt O60674); assay: Recombinant Human JAK2 Kinase Assay (TRF); assay type: biochemical; conditions: read-out: JAK2 Potency
T1 construct: host or cells: baculovirus expression system
How it was run: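 Baculovirus-expressed JAK2 (15 ng/ml) phosphorylated a biotinylated 15-mer peptide captured on Neutravidin-coated plates, in 20 mM HEPES pH 7.2 with 0.2 μM ATP, 1 mM MnCl2, 0.1% BSA and 2.5% DMSO. Reaction ran 20 min at room temperature; phosphopeptide was detected by time-resolved fluorescence with Eu-N1-labelled PY100 antibody.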

ALK = molecular target: T2, ALK (Homo sapiens, UniProt Q9UM73); assay: ALK Kinase Assay (ELISA/TRF, PLC-γ substrate); assay type: biochemical; conditions: read-out: ALK Potency
T2 construct: host or cells: baculovirus expression system
T2 sequence (Q9UM73 19-1620): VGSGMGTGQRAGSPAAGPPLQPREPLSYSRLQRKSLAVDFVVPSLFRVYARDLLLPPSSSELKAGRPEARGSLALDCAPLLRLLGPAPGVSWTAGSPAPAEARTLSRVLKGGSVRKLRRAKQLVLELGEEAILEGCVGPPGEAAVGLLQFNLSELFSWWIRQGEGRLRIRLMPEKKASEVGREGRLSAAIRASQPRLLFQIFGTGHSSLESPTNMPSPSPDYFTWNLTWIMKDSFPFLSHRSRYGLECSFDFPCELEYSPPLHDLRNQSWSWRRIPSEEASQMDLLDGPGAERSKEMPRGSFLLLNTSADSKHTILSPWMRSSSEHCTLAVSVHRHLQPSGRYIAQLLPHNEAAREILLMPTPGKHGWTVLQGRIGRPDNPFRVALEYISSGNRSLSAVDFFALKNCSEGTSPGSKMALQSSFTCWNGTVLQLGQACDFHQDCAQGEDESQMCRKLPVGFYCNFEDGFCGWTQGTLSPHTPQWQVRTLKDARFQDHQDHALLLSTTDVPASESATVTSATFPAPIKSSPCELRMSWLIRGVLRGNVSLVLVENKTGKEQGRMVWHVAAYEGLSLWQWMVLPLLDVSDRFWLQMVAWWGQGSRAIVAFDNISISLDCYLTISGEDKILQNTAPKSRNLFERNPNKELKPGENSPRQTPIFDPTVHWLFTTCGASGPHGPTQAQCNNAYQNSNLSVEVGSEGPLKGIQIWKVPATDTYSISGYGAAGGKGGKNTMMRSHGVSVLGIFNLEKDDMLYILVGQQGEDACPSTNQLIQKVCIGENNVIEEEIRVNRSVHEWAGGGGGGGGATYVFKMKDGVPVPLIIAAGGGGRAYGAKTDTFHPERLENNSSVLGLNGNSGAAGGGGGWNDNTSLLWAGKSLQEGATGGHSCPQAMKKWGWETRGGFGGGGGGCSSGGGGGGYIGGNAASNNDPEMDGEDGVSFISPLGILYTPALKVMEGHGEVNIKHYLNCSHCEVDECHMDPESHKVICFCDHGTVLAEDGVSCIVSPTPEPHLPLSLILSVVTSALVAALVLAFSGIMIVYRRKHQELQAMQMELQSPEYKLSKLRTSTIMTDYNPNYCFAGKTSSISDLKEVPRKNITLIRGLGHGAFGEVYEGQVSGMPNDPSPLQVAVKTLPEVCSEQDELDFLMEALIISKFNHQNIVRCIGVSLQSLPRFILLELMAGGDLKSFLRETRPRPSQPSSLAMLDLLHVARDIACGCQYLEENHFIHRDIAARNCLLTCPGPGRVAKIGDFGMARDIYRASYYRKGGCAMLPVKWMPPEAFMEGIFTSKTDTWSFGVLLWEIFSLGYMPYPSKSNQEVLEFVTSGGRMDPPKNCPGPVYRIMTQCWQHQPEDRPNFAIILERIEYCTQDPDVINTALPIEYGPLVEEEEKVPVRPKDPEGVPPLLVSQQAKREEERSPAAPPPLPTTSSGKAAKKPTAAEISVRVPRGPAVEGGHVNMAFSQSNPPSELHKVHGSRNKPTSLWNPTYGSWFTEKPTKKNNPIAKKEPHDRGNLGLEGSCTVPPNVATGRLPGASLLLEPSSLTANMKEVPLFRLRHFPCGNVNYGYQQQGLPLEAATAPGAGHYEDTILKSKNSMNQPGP
How it was run: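 PLC-γ substrate coated at 10 μg/mL in TBS; reaction started with 30 ng/ml ALK, run 15 min at 37° C. Phosphoproduct detected by TRF with Eu-N1-labeled PT66 anti-phosphotyrosine antibody. IC50 from sigmoidal variable-slope fit of percent inhibition versus log concentration.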

[1] = JAK2 kinase inhibition, 0.2 μM ATP
[2] = ALK kinase inhibition, 1 μM ATP

T1 sequence (O60674 whole entry): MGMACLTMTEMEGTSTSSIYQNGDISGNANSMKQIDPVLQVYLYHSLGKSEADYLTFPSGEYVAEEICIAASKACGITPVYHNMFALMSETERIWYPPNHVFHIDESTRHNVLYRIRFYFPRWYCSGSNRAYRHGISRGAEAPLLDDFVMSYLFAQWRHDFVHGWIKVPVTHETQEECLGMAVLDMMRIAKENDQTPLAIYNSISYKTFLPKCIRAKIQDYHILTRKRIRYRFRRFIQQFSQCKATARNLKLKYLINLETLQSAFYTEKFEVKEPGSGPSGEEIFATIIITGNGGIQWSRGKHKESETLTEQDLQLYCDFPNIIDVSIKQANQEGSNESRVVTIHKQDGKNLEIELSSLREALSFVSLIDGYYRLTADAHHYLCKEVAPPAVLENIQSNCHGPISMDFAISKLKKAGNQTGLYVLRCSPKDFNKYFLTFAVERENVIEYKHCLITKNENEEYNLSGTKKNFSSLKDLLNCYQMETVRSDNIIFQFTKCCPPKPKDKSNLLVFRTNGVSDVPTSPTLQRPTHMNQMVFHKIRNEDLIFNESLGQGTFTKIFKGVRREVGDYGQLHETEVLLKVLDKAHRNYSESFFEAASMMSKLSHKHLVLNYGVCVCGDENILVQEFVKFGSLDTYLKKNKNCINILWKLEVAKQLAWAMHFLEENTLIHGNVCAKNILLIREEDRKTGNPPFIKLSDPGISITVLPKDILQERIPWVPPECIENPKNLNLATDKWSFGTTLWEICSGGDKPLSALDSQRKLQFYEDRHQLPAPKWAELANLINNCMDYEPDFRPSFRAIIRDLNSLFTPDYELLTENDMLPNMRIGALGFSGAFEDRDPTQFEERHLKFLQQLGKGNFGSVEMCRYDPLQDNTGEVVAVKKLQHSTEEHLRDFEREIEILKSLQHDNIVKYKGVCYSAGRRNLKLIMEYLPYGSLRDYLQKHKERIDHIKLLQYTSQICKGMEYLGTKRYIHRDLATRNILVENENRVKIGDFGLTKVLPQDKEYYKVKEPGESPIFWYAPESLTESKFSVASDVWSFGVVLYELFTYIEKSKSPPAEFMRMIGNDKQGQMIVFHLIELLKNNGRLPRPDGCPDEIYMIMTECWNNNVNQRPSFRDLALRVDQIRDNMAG

Row | Molecule | IC50 (JAK2; JAK2 Kinase Inhibition) [nM] | IC50 (ALK; ALK Kinase Inhibition) [nM] | IC50 (JAK2; [1]) [nM] | IC50 (ALK; [2]) [nM]
1 | CN1CCN(c2ccc(Nc3ncc4ccc(-c5ccccc5C(N)=O)n4n3)cc2)CC1 [Example 409, 2-{2-[4-(4-Methyl-piperazin-1-yl)-phenylamino]-pyrrolo[2,1-f][1,2,4]triazin-7-yl}-benzamide] | < 100 | 100 to 1000 |  | 
2 | COc1ccccc1-c1ccc2cnc(Nc3ccc(C4CC5CCC(C4)N5C)cc3)nn12 (centres unmarked) [Example 945, [7-(2-Methoxy-phenyl)-pyrrolo[2,1-f][1,2,4]triazin-2-yl]-[4-(8-methyl-8-azabicyclo[3.2.1]oct-3-yl)-phenyl]-amine] |  |  | < 100 | < 100
3 | COc1cc(CCN2CCN(C)CC2)ccc1Nc1ncc2ccc(-c3ccccc3OC)n2n1 [Example 488, {2-Methoxy-4-[2-(4-methyl-piperazin-1-yl)-ethyl]-phenyl}-[7-(2-methoxy-phenyl)-pyrrolo[2,1-f][1,2,4]triazin-2-yl]-amine] |  |  | 100 to 1000 | < 100
4 | COc1cc(N2CCC(N3CCCN(C)CC3)CC2)ccc1Nc1ncc2ccc(-c3ccccc3N(C)S(C)(=O)=O)n2n1 [Example 784, N-[2-(2-{2-Methoxy-4-[4-(4-methyl-[1,4]diazepan-1-yl)-piperidin-1-yl]-phenylamino}-pyrrolo[2,1-f][1,2,4]triazin-7-yl)-phenyl]-N-methyl-methanesulfonamide] |  |  | 100 to 1000 | < 100
5 | CS(=O)(=O)c1ccc(-c2ccc3cnc(Nc4ccc(N5CCOCC5)nc4)nn23)cc1 [Example 60, [7-(4-Methanesulfonyl-phenyl)-pyrrolo[2,1-f][1,2,4]triazin-2-yl]-(6-morpholin-4-yl-pyridin-3-yl)-amine] | < 100 | 1000 to 10000 |  | 
6 | c1cncc(-c2ccc3cnc(Nc4ccc(N5CCCC(N6CCOCC6)C5)cc4)nn23)c1 (centres unmarked) [Example 347, [4-(3-Morpholin-4-yl-piperidin-1-yl)-phenyl]-(7-pyridin-3-yl-pyrrolo[2,1-f][1,2,4]triazin-2-yl)-amine] | < 100 | 100 to 1000 |  | 
7 | CN(c1ccccc1-c1ccc2cnc(Nc3ccc4nn(CCN5CCOCC5)cc4c3)nn12)S(C)(=O)=O [Example 1343, N-Methyl-N-(2-{2-[2-(2-morpholin-4-yl-ethyl)-2H-indazol-5-ylamino]-pyrrolo[2,1-f][1,2,4]triazin-7-yl}-phenyl)-methanesulfonamide] |  |  | < 100 | < 100
8 | COc1ccc(-c2ccc3cnc(Nc4ccc5c(c4)N(C)CCO5)nn23)cn1 [Example 644, [7-(6-Methoxy-pyridin-3-yl)-pyrrolo[2,1-f][1,2,4]triazin-2-yl]-(4-methyl-3,4-dihydro-2H-benzo[1,4]oxazin-6-yl)-amine] |  |  | < 100 | 1000 to 10000
9 | CS(=O)(=O)Nc1cccc(-c2ccc3cnc(Nc4ccc(C5CCN(CC(N)=O)CC5)cc4)nn23)c1 [Example 956, 2-(4-{4-[7-(3-Methanesulfonylamino-phenyl)-pyrrolo[2,1-f][1,2,4]triazin-2-ylamino]-phenyl}-piperidin-1-yl)-acetamide] |  |  | < 100 | 100 to 1000
10 | COc1cc2c(cc1Nc1ncc3ccc(-c4ccccc4N(C)S(C)(=O)=O)n3n1)CCC1(CCN(C[C@H](C)O)CC1)O2 [Example 1496, N-{2-[2-({1′-[(25)-2-hydroxypropyl]-7-methoxy-3,4-dihydrospiro[chromene-2,4′-piperidin]-6-yl}amino)pyrrolo[2,1-f][1,2,4]triazin-7-yl]phenyl}-N-methylmethanesulfonamide] | 1000 to 10000 | < 100 |  | 
11 | COc1cc(-c2ccc3cnc(Nc4ccc(C5CN(CC(N)=O)C5)cc4)nn23)c(OC)nn1 [Example 581, 2-(3-{4-[7-(3,6-Dimethoxy-pyridazin-4-yl)-pyrrolo[2,1-f][1,2,4]triazin-2-ylamino]-phenyl}-azetidin-1-yl)-acetamide] |  |  | < 100 | 100 to 1000
12 | CN1CCN(c2ccc(Nc3ncc4ccc(-c5ccc(S(C)(=O)=O)cc5)n4n3)cc2)CC1 [Example 59, [7-(4-Methanesulfonyl-phenyl)-pyrrolo[2,1-f][1,2,4]triazin-2-yl]-[4-(4-methyl-piperazin-1-yl)-phenyl]-amine] | < 100 | 100 to 1000 |  | 
13 | N-{2-[2-(4-{4-[(2-Hydroxy-ethyl)-methyl-amino]-piperidin-1-yl}-2-ethoxy-phenylamino)-pyrrolo[2,1-f][1,2,4]triazin-7-yl]-phenyl}-N-methyl-methanesulfonamide [Example 795] |  |  | 100 to 1000 | < 100
14 | CCOC(=O)c1cccc(Nc2ncc3ccc(-c4cccc(S(=O)(=O)NC(C)(C)C)c4)n3n2)c1 [Example 890, 3-[7-(3-tert-Butylsulfamoyl-phenyl)-pyrrolo[2,1f][1,2,4]triazin-2-ylamino]-benzoic acid ethyl ester] |  |  | < 100 | > 10000
15 | NC(=O)CN1CCC(c2ccc(Nc3ncc4ccc(-c5cccc(CO)c5)n4n3)cc2)CC1 [Example 1065, 2-(4-{4-[7-(3-Hydroxymethyl-phenyl)-pyrrolo[2,1-f][1,2,4]triazin-2-ylamino]-phenyl}-piperidin-1-yl)-acetamide] |  |  | < 100 | 100 to 1000

Next, values leading:

Row | IC50 (JAK2; JAK2 Kinase Inhibition) [nM] | IC50 (ALK; ALK Kinase Inhibition) [nM] | IC50 (JAK2; [1]) [nM] | IC50 (ALK; [2]) [nM] | Molecule
16 | < 100 | 100 to 1000 |  |  | C[C@H](O)CN1CCN(c2cccc(Nc3ncc4ccc(-c5ccc(S(C)(=O)=O)cc5)n4n3)c2)CC1 [Example 216, (S)-1-(4-{3-[7-(4-Methanesulfonyl-phenyl)-pyrrolo[2,1-f][1,2,4]triazin-2-ylamino]-phenyl}-piperazin-1-yl)-propan-2-ol]
17 | 1000 to 10000 | 1000 to 10000 |  |  | c1cncc(-c2ccc3cnc(-n4cnc5cnccc54)nn23)c1 [Example 325, 1-(7-Pyridin-3-yl-pyrrolo[2,1-f][1,2,4]triazin-2-yl)-1H-imidazo[4,5-c]pyridine]
18 | < 100 | < 100 |  |  | CN1CCN(C(=O)C2CCN(c3ccc(Nc4ncc5ccc(-c6ccccc6N(C)S(C)(=O)=O)n5n4)cc3)CC2)CC1 [Example 448, N-Methyl-N-[2-(2-{4-[4-(4-methyl-piperazine-1-carbonyl)-piperidin-1-yl]-phenylamino}-pyrrolo[2,1-f][1,2,4]triazin-7-yl)-phenyl]-methanesulfonamide]
19 |  |  | < 100 | 100 to 1000 | COc1cc(-c2ccc3cnc(Nc4ccc(C5CCN(CC(N)=O)CC5)cc4)nn23)c(OC)nn1 [Example 580, 2-(4-{4-[7-(3,6-Dimethoxy-pyridazin-4-yl)-pyrrolo[2,1-f][1,2,4]triazin-2-ylamino]-phenyl}-piperidin-1-yl)-acetamide]
20 | < 100 | < 100 |  |  | COc1cc(N2CCC(N3CCN(C)CC3)CC2)ccc1Nc1ncc2ccc(-c3ccccc3OC)n2n1 [Example 251, {2-Methoxy-4-[4-(4-methyl-piperazin-1-yl)-piperidin-1-yl]-phenyl}-[7-(2-methoxy-phenyl)-pyrrolo[2,1-f][1,2,4]triazin-2-yl]-amine]
21 |  |  | < 100 | < 100 | CN1CCc2cc(Nc3ncc4ccc(-c5cccc(S(=O)(=O)NC(C)(C)C)c5)n4n3)ccc2C1 [Example 921, N-tert-Butyl-3-[2-(2-methyl-1,2,3,4-tetrahydro-isoquinolin-6-ylamino)-pyrrolo[2,1-f][1,2,4]triazin-7-yl]-benzenesulfonamide]
22 | < 100 | < 100 |  |  | [7-(3-Chloro-phenyl)-pyrrolo[2,1-f][1,2,4]triazin-2-yl]-{4-[2-(4-ethyl-piperazin-1-yl)-ethoxy]-phenyl}-amine [Example 93]
23 | < 100 | 100 to 1000 |  |  | CS(=O)(=O)Nc1cccc(-c2ccc3cnc(Nc4ccc5c(c4)CCC(N4CCOCC4)CC5)nn23)c1 (centres unmarked) [Example 382, N-{3-[2-(7-Morpholin-4-yl-6,7,8,9-tetrahydro-5H-benzocyclohepten-2-ylamino)-pyrrolo[2,1-f][1,2,4]triazin-7-yl]-phenyl}-methanesulfonamide]
24 |  |  | < 100 | < 100 | CN1CCN(c2ccc(Nc3ncc4ccc(-c5ccc(CN6CCS(=O)(=O)CC6)cc5)n4n3)cc2)CC1 [Example 1031, {7-[4-(1,1-Dioxo-1$1(6)-thiomorpholin-4-ylmethyl)-phenyl]-pyrrolo[2,1-f][1,2,4]triazin-2-yl}-[4-(4-methyl-piperazin-1-yl)-phenyl]-amine]
25 | < 100 | 1000 to 10000 |  |  | CNC(=O)c1cccc(Nc2ncc3ccc(-c4cccc(S(=O)(=O)NC(C)(C)C)c4)n3n2)c1 [Example 1384, 3-[7-(3-tert-Butylsulfamoyl-phenyl)-pyrrolo[2,1-f][1,2,4]triazin-2-ylamino]-N-methyl-benzamide]
26 |  |  | < 100 | 100 to 1000 | CN(c1cccc(-c2ccc3cnc(Nc4ccc(C5CCN(CCO)CC5)cc4)nn23)c1)S(C)(=O)=O [Example 961, N-[3-(2-{4-[1-(2-Hydroxy-ethyl)-piperidin-4-yl]-phenylamino}-pyrrolo[2,1-f][1,2,4]triazin-7-yl)-phenyl]-N-methyl-methanesulfonamide]
27 | < 100 | 100 to 1000 |  |  | CC(C)(C)NS(=O)(=O)c1cccc(-c2ccc3cnc(Nc4ccc(N5CCOCC5)c(F)c4)nn23)c1 [Example 1395, N-tert-Butyl-3-[2-(3-fluoro-4-morpholin-4-yl-phenylamino)-pyrrolo[2,1-f][1,2,4]triazin-7-yl]-benzenesulfonamide]
28 | 100 to 1000 | < 100 |  |  | COc1cc(N2CCC(N3CCN(C)CC3)CC2)ccc1Nc1ncc2ccc(-c3cccnc3)n2n1 [Example 241]
